Reference: patent US20140031388A1, “AKT INACTIVATION BY TOCOPHERYL DERIVATIVES” (priority 2012, published 2014)

Tests used:
[1] = tested on: LNCaP and PC-3 cells; experiment: MTT viability assay, one value stated for both prostate cancer lines; assay type: cell-based; conditions: for IC50: Homo sapiens, MTT, serum-free medium, one value for LNCaP and PC-3, read-out: IC50, antiproliferative effect / viability; for potency relative to parent tocopherol: Ser-473-Akt dephosphorylation and viability of prostate cancer cells
Procedure: (§1) The prostate cancer cell lines, LNCaP and PC-3, were purchased from American Type Culture Collection (Manassas, Va.) and maintained in RPMI 1640 medium containing 10% heat-inactivated fetal bovine serum at 37° C. in a humidified incubator containing 5% CO2. The LNCaP-abl cells were a generous gift from Dr. Qianben Wang (The Ohio State University). Normal prostate epithelial cells were purchased from Lonza (Walkersville, Md.) and were cultured in the vendor-recommended defined prostate epithelial cell growth medium. For experiments, LNCaP cells were plated on poly-D-lysine-coated culture flasks at a density of 12,000 cells per cm^2 surface area for 24 hours, followed by treatment with test agents in serum-free RPMI 1640 medium. The α- and γ-tocopherols were purchased from Sigma-Aldrich (St. Louis, Mo.). The tocopherol derivatives, α- and γ-VE5, were synthesized by the inventors.
(§2) LNCaP cells were plated into poly-D-lysine-coated 96-well plates and PC-3 and LNCaP-abl cells into uncoated plates at the density of 5,000 cells per well in the presence of 10% FBS. Normal prostate epithelial cells were plated into uncoated plates at a density of 8,000 cells per well. Exposure to test agents in serum-free medium was initiated 24 hours later. After 24 hours of treatment, cells were incubated with MTT [3-(4,5-dimethylthiazol-2-yl)-2,5-diphenyl-2H-tetrazolium bromide] (TCI America; 0.5 mg/ml, final concentration) for an additional 2 hours. The medium was then removed from each well and replaced with DMSO to dissolve the reduced MTT dye for subsequent colorimetric measurement of absorbance at 595 nm. Cell viabilities are calculated as percentages of that in the corresponding vehicle-treated control group.

[2] = tested on: Normal prostate epithelial cells; experiment: Viability / apoptosis in normal prostate epithelial cells; assay type: cell-based; conditions: Epithelial cell
Procedure: as §1, §2

[3] = target: T1, PH domain of PHLPP1 (GST-PH domain fusion protein) (Homo sapiens, UniProt O60346); experiment: Surface plasmon resonance binding, PHLPP1 PH domain; conditions: SPR; means (n = 3) ± SD; read-out: Kd, PHLPP1 PH domain
T1 construct: made in house
T1 sequence (O60346 536-636 limits assumed): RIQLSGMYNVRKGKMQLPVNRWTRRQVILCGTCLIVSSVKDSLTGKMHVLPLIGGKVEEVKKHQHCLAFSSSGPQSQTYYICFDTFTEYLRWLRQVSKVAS
From the text: (§3) The cDNA fragments corresponding to the putative PH domain sequences of PHLPP1 (+115 to +372), PDK1 (+1225 to +1671), Akt1 (+1 to +447) and ILK (+538 to +646) were PCR-amplified using the plasmids pcDNA-HA-PHLPP1, pWZL-Neo-Myr-FLAG-PDPK1, pcDNA-HA-PKB-T308D-S473D, and pCMV-SPORT-ILK (Addgene) as templates. The PCR products were then cloned into EcoRI/XhoI sites of the pGEX-4T1 expression vector (GE Healthcare Life Sciences) to generate four constructs (pGEX-4T1-PHLPP1, pGEX-4T1-PDPK1, pGEX-4T1-AKT1, pGEX-4T1-ILK) for the expression of GST-PH domain fusion proteins. The mutated Akt1 Y38G PH domain was generated from pGEX-4T1-AKT1 by site-directed mutagenesis using the QuikChange II XL Site-Directed Mutagenesis Kit (Agilent Technologies). The expression and purification of GST-PH domain fusion proteins were performed essentially as described previously. Thomas et al., Curr Biol 12, 1256 (2002). The purified PH domains were analyzed by SDS-PAGE using an overloaded gel with purities were estimated to be >95% using ImageJ software.
(§4) Binding experiments were performed using a Biacore T100 system (GE Healthcare, Piscataway, N.J.). The GST-PH domain fusion proteins were immobilized on a CM5 S Sensorchip using Biacore's Amine Coupling Kit to a level of 17,000 response units. VE5 compounds and di-octanoyl PIP3 at concentrations ranging from 0.1 to 100 μM and 1 to 20 μm, respectively, were injected at a high flow rate (30 μL/min) over the biosensor surface for binding analyses. DMSO concentrations in all samples and running buffer were 1% (v/v) or less. Data were analyzed using Biacore T100 Evaluation Software.

[4] = target: T2, Akt1 Y38G PH domain (Homo sapiens, UniProt P31749, Y38G); experiment: Surface plasmon resonance binding, Akt-Y38G PH domain mutant; conditions: SPR, P < 0.05 vs. Akt
T2 construct: made in house
T2 sequence (P31749 5-108 Y38G limits assumed): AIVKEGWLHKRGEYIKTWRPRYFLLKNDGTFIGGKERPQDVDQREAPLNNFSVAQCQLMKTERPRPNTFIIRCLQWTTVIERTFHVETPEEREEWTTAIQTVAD
From the text: as §3
Binding experiments were performed using a Biacore T100 system (GE Healthcare, Piscataway, N.J.). The GST-PH domain fusion proteins were immobilized on a CM5 S Sensorchip using Biacore's Amine Coupling Kit to a level of 17,000 response units. […] Data were analyzed using Biacore T100 Evaluation Software.

[5] = tested on: phosphorylation of Ser473 in Akt; experiment: Western blot of Akt phosphorylation at Ser473; assay type: cell-based; conditions: LNCaP and PC-3 cells, Thr308 not altered
Procedure: (§5) Cells were exposed to the test agents in 10-cm dishes for 24 hours and then collected by scraping. The cell pellets were washed once with PBS, and then lysed at 4° C. over 30 min of incubation in a sodium dodecyl sulfate (SDS) lysis buffer containing 1% SDS, 50 mM Tris HCl (pH 8.1), 10 mM EDTA and […] protease inhibitor cocktail (Sigma-Aldrich). The cell debris was pelleted by centrifugation for 20 min at 14,000×g, and 1 μl of each supernatant was used for determination of protein concentration using a colorimetric bicinchoninic assay (Pierce, Rockford, Ill.). The remaining sample was added to equal volume of 2×SDS-polyacrylamide gel electrophoresis sample loading buffer (62.5 mM Tris-HCl, pH 6.8, 4% SDS, 5% β-mercaptoethanol, 20% glycerol, 0.1% bromophenol blue), followed by incubation in boiling water for 5 min. Equivalent amounts of total protein were resolved in SDS-polyacrylamide gels, and then transferred to nitrocellulose membranes using a semidry transfer cell. The transblotted membrane was washed twice with Tris-buffered saline containing 0.1% Tween 20 (TBST). After blocking with TBST containing 5% nonfat milk for 40 min, the membrane was incubated with the appropriate primary antibody (1:1000) in TBST-1% nonfat milk at 4° C. overnight. The membrane was then washed three times with TBST for a total of 15 min, followed by incubation with goat anti-rabbit or anti-mouse IgG-horseradish peroxidase conjugates (1:2000) for 1 hour at room temperature and four washes with TBST for a total of 1 hour. The immunoblots were visualized by enhanced chemiluminescence (GE Healthcare Life Sciences).

[6] = tested on: mTORC2 (mTOR, rictor, SGK, PKCα); experiment: Western blot of mTORC2 components and downstream targets; assay type: cell-based
Procedure: as §5

[7] = target: VL2-deleted mutant of the PH domain of Akt (Homo sapiens, UniProt P31749); experiment: Surface plasmon resonance binding, VL2-deleted Akt PH domain; conditions: SPR
Chain of VL2-deleted mutant of the PH domain of Akt (P31749 whole entry, looked up, stated change not applied, the tested form may be a part): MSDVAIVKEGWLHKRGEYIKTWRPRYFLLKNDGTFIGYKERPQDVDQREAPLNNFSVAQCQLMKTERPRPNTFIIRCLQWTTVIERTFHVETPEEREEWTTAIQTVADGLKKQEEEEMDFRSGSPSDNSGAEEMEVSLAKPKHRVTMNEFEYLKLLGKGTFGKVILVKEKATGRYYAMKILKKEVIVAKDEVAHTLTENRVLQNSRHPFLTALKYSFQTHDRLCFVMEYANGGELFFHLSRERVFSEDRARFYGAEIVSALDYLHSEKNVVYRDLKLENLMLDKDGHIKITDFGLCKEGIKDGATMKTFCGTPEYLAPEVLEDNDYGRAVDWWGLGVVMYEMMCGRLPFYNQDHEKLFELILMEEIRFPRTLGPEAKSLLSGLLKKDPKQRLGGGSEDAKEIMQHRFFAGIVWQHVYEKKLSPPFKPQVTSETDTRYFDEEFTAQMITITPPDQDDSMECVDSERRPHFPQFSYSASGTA
Procedure: as §4

SMILES | IC50 [1] [µM] | potency relative to parent tocopherol [1] [fold] | potency relative to parent tocopherol ([1]; listed as a-VE5) [fold] | IC50 [2] [µM] | Kd [3] [µM] | Kd [4] [µM] | effect on phosphorylation of Akt at Ser473 [5] | abundance or phosphorylation of mTORC2 components and targets (mTOR, rictor, SGK, PKCα) [6] | Kd [7] [µM]
Cc1c(C)c2c(c(C)c1O)CC[C@@](C)(CCCC(C)C)O2 [α-VE5, (R)-2,5,7,8-tetramethyl-2-(4-methylpentyl)-chroman-6-ol] | 15 to 20 | 50 | 10 | ~50 | 3.1 ± 0.3 | 0.48 ± 0.13 | parallel reduction | lack of changes | 
Cc1c(O)cc2c(c1C)O[C@](C)(CCCC(C)C)CC2 [γ-VE5, (R)-2,7,8-trimethyl-2-(4-methylpentyl)-chroman-6-ol] | 7 to 10 |  |  | ~40 | 0.7 ± 0.1 | 0.49 ± 0.02 | parallel reduction | lack of changes | 30 ± 4
